Results taken from the NIST ThermoML archive (doi:10.1016/j.jct.2019.02.011).

Test: xn = mol fraction of the nth substance listed
Details: Liquid, Vibrating tube method

COC(=O)OC [dimethyl carbonate] + CO
Details	mass density [kg/m3]
293.15 K, 35000 kPa, x1 = 0.9575	1092.6
293.15 K, 35000 kPa, x1 = 0.9861	1096.44
293.15 K, 35000 kPa, x1 = 1	1098.34
293.15 K, 40000 kPa, x1 = 0.0253	837.02
293.15 K, 40000 kPa, x1 = 0.0503	850.69
293.15 K, 40000 kPa, x1 = 0.0745	863.25
293.15 K, 40000 kPa, x1 = 0.101	876.36
293.15 K, 40000 kPa, x1 = 0.1502	898.94
293.15 K, 40000 kPa, x1 = 0.2059	922.29
293.15 K, 40000 kPa, x1 = 0.25	939.11
293.15 K, 40000 kPa, x1 = 0.3004	956.8
293.15 K, 40000 kPa, x1 = 0.3426	970.51
293.15 K, 40000 kPa, x1 = 0.3984	987.25
293.15 K, 40000 kPa, x1 = 0.4514	1001.78
293.15 K, 40000 kPa, x1 = 0.5054	1015.38
293.15 K, 40000 kPa, x1 = 0.5509	1026.01
293.15 K, 40000 kPa, x1 = 0.6002	1036.7
293.15 K, 40000 kPa, x1 = 0.6469	1046.11
293.15 K, 40000 kPa, x1 = 0.6993	1055.92
293.15 K, 40000 kPa, x1 = 0.7496	1064.69
293.15 K, 40000 kPa, x1 = 0.799	1072.77
293.15 K, 40000 kPa, x1 = 0.837	1078.71
293.15 K, 40000 kPa, x1 = 0.9093	1089.35
293.15 K, 40000 kPa, x1 = 0.9239	1091.39
293.15 K, 40000 kPa, x1 = 0.9575	1096.04
293.15 K, 40000 kPa, x1 = 0.9861	1099.94
293.15 K, 40000 kPa, x1 = 1	1101.84
298.15 K, 100 kPa, x1 = 0.0253	801.12
298.15 K, 100 kPa, x1 = 0.0503	814.67
298.15 K, 100 kPa, x1 = 0.0745	827.15
298.15 K, 100 kPa, x1 = 0.101	840.09
298.15 K, 100 kPa, x1 = 0.1502	862.34
298.15 K, 100 kPa, x1 = 0.2059	885.36
298.15 K, 100 kPa, x1 = 0.25	902
298.15 K, 100 kPa, x1 = 0.3004	919.49
298.15 K, 100 kPa, x1 = 0.3426	933.01
298.15 K, 100 kPa, x1 = 0.3984	949.56
298.15 K, 100 kPa, x1 = 0.4514	964.01
298.15 K, 100 kPa, x1 = 0.5054	977.58
298.15 K, 100 kPa, x1 = 0.5509	988.15
298.15 K, 100 kPa, x1 = 0.6002	998.73
298.15 K, 100 kPa, x1 = 0.6469	1008.04
298.15 K, 100 kPa, x1 = 0.6993	1017.79
298.15 K, 100 kPa, x1 = 0.7496	1026.56
298.15 K, 100 kPa, x1 = 0.799	1034.65
298.15 K, 100 kPa, x1 = 0.837	1040.55
298.15 K, 100 kPa, x1 = 0.9093	1051.17
298.15 K, 100 kPa, x1 = 0.9239	1053.21
298.15 K, 100 kPa, x1 = 0.9575	1057.78
298.15 K, 100 kPa, x1 = 0.9861	1061.61
298.15 K, 100 kPa, x1 = 1	1063.45
298.15 K, 5000 kPa, x1 = 0.0253	805.88
298.15 K, 5000 kPa, x1 = 0.0503	819.42
298.15 K, 5000 kPa, x1 = 0.0745	831.91
298.15 K, 5000 kPa, x1 = 0.101	844.85
298.15 K, 5000 kPa, x1 = 0.1502	867.1
298.15 K, 5000 kPa, x1 = 0.2059	890.12
298.15 K, 5000 kPa, x1 = 0.25	906.75
298.15 K, 5000 kPa, x1 = 0.3004	924.24
298.15 K, 5000 kPa, x1 = 0.3426	937.77
298.15 K, 5000 kPa, x1 = 0.3984	954.26
298.15 K, 5000 kPa, x1 = 0.4514	968.71
298.15 K, 5000 kPa, x1 = 0.5054	982.28
298.15 K, 5000 kPa, x1 = 0.5509	992.8
298.15 K, 5000 kPa, x1 = 0.6002	1003.39
298.15 K, 5000 kPa, x1 = 0.6469	1012.69
298.15 K, 5000 kPa, x1 = 0.6993	1022.44
298.15 K, 5000 kPa, x1 = 0.7496	1031.16
298.15 K, 5000 kPa, x1 = 0.799	1039.25
298.15 K, 5000 kPa, x1 = 0.837	1045.15
298.15 K, 5000 kPa, x1 = 0.9093	1055.73
298.15 K, 5000 kPa, x1 = 0.9239	1057.76
298.15 K, 5000 kPa, x1 = 0.9575	1062.33
298.15 K, 5000 kPa, x1 = 0.9861	1066.16
298.15 K, 5000 kPa, x1 = 1	1068
298.15 K, 10000 kPa, x1 = 0.0253	810.17
298.15 K, 10000 kPa, x1 = 0.0503	823.72
298.15 K, 10000 kPa, x1 = 0.0745	836.21
298.15 K, 10000 kPa, x1 = 0.101	849.21
298.15 K, 10000 kPa, x1 = 0.1502	871.47
298.15 K, 10000 kPa, x1 = 0.2059	894.5
298.15 K, 10000 kPa, x1 = 0.25	911.19
298.15 K, 10000 kPa, x1 = 0.3004	928.68
298.15 K, 10000 kPa, x1 = 0.3426	942.22
298.15 K, 10000 kPa, x1 = 0.3984	958.77
298.15 K, 10000 kPa, x1 = 0.4514	973.22
298.15 K, 10000 kPa, x1 = 0.5054	986.75
298.15 K, 10000 kPa, x1 = 0.5509	997.28
298.15 K, 10000 kPa, x1 = 0.6002	1007.87
298.15 K, 10000 kPa, x1 = 0.6469	1017.17
298.15 K, 10000 kPa, x1 = 0.6993	1026.93
298.15 K, 10000 kPa, x1 = 0.7496	1035.66
298.15 K, 10000 kPa, x1 = 0.799	1043.74
298.15 K, 10000 kPa, x1 = 0.837	1049.65
298.15 K, 10000 kPa, x1 = 0.9093	1060.23
298.15 K, 10000 kPa, x1 = 0.9239	1062.27
298.15 K, 10000 kPa, x1 = 0.9575	1066.84
298.15 K, 10000 kPa, x1 = 0.9861	1070.67
298.15 K, 10000 kPa, x1 = 1	1072.51
298.15 K, 15000 kPa, x1 = 0.0253	814.5
298.15 K, 15000 kPa, x1 = 0.0503	828.05
298.15 K, 15000 kPa, x1 = 0.0745	840.55
298.15 K, 15000 kPa, x1 = 0.101	853.54
298.15 K, 15000 kPa, x1 = 0.1502	875.8
298.15 K, 15000 kPa, x1 = 0.2059	898.84
298.15 K, 15000 kPa, x1 = 0.25	915.53
298.15 K, 15000 kPa, x1 = 0.3004	933.03
298.15 K, 15000 kPa, x1 = 0.3426	946.56
298.15 K, 15000 kPa, x1 = 0.3984	963.12
298.15 K, 15000 kPa, x1 = 0.4514	977.52
298.15 K, 15000 kPa, x1 = 0.5054	991.05
298.15 K, 15000 kPa, x1 = 0.5509	1001.58
298.15 K, 15000 kPa, x1 = 0.6002	1012.12
298.15 K, 15000 kPa, x1 = 0.6469	1021.43
298.15 K, 15000 kPa, x1 = 0.6993	1031.19
298.15 K, 15000 kPa, x1 = 0.7496	1039.91
298.15 K, 15000 kPa, x1 = 0.799	1047.95
298.15 K, 15000 kPa, x1 = 0.837	1053.86
298.15 K, 15000 kPa, x1 = 0.9093	1064.44
298.15 K, 15000 kPa, x1 = 0.9239	1066.48
298.15 K, 15000 kPa, x1 = 0.9575	1071.05
298.15 K, 15000 kPa, x1 = 0.9861	1074.88
298.15 K, 15000 kPa, x1 = 1	1076.72
298.15 K, 20000 kPa, x1 = 0.0253	818.56
298.15 K, 20000 kPa, x1 = 0.0503	832.13
298.15 K, 20000 kPa, x1 = 0.0745	844.63
298.15 K, 20000 kPa, x1 = 0.101	857.59
298.15 K, 20000 kPa, x1 = 0.1502	879.93
298.15 K, 20000 kPa, x1 = 0.2059	902.99
298.15 K, 20000 kPa, x1 = 0.25	919.64
298.15 K, 20000 kPa, x1 = 0.3004	937.16
298.15 K, 20000 kPa, x1 = 0.3426	950.71
298.15 K, 20000 kPa, x1 = 0.3984	967.28
298.15 K, 20000 kPa, x1 = 0.4514	981.7
298.15 K, 20000 kPa, x1 = 0.5054	995.2
